Reference: patent US20250161243A1, “MEF2 TRANSCRIPTIONAL ACTIVATORS TO TREAT NEUROLOGIC CONDITIONS” (The Scripps Research Institute, priority 2022, published 2025)
Counter-ions that a name gives are not always drawn.

test system: MEF2 transcriptional activity; assay: MEF2 transcriptional activity screen (Luciferase-MEF2 reporter in human neural progenitor cells); format: cell-based; details: Homo sapiens, read-out: qAC50 [M]

Compound | EC50 [M]
O=C(NOCCO)c1cc(CN2OCCCC2=O)c(F)c(F)c1Nc1ccc(I)cc1F [CH-4987655] | 1.07e-07

same assay, conditions: Homo sapiens; concentration for half-maximal activity derived from the hill equation model; MEF2 luciferase reporter; read-out: qAC50

Compound | EC50 [M]
COC(=O)C1=C(C)NC(C)=C(C(=O)OC(C)C)C1c1ccccc1[N+](=O)[O-] (stereo not drawn) | 1.53e-06
CSCCOC(=O)C1=C(C)NC(C)=C(C(=O)OCCSC)C1c1ccccc1[N+](=O)[O-] | 2.07e-06
CC(=O)C(=Cc1ccccc1)C(C)=O | 1.57e-05
Cn1cc(-c2ccc(S(=O)(=O)n3ccc(/C=C/C(=O)Nc4ccccc4N)c3)cc2)cn1 [4SC-202] | 1.75e-05
CC(CO)(CO)NCc1ccc2c3c(cccc13)-c1ccccc1-2 [773U82] | 1.89e-05
Nc1c2ccccc2nc2ccccc12 [ACRISORCIN] | 1.93e-05
O=c1cc(-c2ccc(O)cc2)oc2cc(O)cc(O)c12 [APIGENIN] | 4.69e-06
CCCNC(=O)c1ccc2c(c1)N(C(C)CN1CCCC1)c1ccccc1S2 (stereo not drawn) [Apadoline] | 1.97e-05
CC[C@@H]1C(=O)N(C)c2cnc(Nc3ccc(C(=O)NC4CCN(C)CC4)cc3OC)nc2N1C1CCCC1 [BI-2536] | 2.09e-07
COc1ccc(C(=O)/C(Br)=C/C(=O)O)cc1 [Bromebrate sodium] | > 1.99e-05
N/C(=N\Nc1ccccc1)c1ccccc1 [CBS-1114] | > 1.99e-05
CN(C)CCCNC(=O)/C(=C/CCCCC(=O)NO)COc1cccc2ccccc12 [CG-200745] | 2.14e-07
O=C(NO)c1cnc(N2C[C@@H]3[C@H](C2)[C@H]3NCc2ccc3cc(F)ccc3n2)nc1 [CHR-3996] | 2.8e-07
O=C(NOCC1CC1)c1ccc(F)c(F)c1Nc1ccc(I)cc1Cl [CI-1040] | 8.54e-07
O=c1oc(CCN2CCN(c3ccccc3)CC2)c(-c2ccc(Cl)cc2)o1 [CLODOXOPONE] | > 1.99e-05
C#Cc1cccc(Nc2ncnc3cc(OC)c(OCCCCCCC(=O)NO)cc23)c1 [CUDC-101] | 1.05e-06
CCCc1cc(O)c2c(c1)OC(C)(C)[C@@H]1CCC(C)=C[C@@H]21 [DELTA-9-TETRA-[…]] | 2.29e-06
CCCCCCC(C)(C)c1cc(O)c2c(c1)OC(C)(C)[C@H]1CC=C(CO)C[C@H]21 [Dexanabinol] | 7.97e-06
O=C(NO)c1ccc(C2=Nc3ccccc3Oc3ccccc32)cc1 [EVP-0334] | 3.03e-06
CCN(CC)Cc1ccc2cc(COC(=O)Nc3ccc(C(=O)NO)cc3)ccc2c1 [Givinostat hydrochloride] | 9.72e-07
O=C(NO)c1cnc(N2CCN(S(=O)(=O)c3ccc4ccccc4c3)CC2)nc1 [JNJ-16241199] | 1.59e-07
C/C(=N\NC(=O)c1ccc(C(=O)O)s1)c1csc(-c2ccc(Cl)c(Cl)c2)c1O [ONO-7746] | 2.57e-06
Cc1sc2c(c1C)C(c1ccc(Cl)cc1)=N[C@@H](CC(=O)Nc1ccc(O)cc1)c1nnc(C)n1-2 [OTX-015] | 4.51e-07

Compound | EC50 [M]
CCOC(=O)OC(C)OC(=O)CNC(=O)[C@@H](CSSC[C@@H](N)CCSC)Cc1ccccc1 (stereo partly drawn) [PL-37] | 1.29e-05
Cc1[nH]c2ccccc2c1CCNCc1ccc(/C=C/C(=O)NO)cc1 [Panobinostat lactate] | 1.22e-08
CC(C)OC(=O)CCC/C=C\C[C@H]1C(=O)C=C[C@@H]1/C=C/[C@@H](O)CCc1ccccc1 [Posaraprost] | > 4.97e-06
Cn1nccc1Nc1nccc(-c2ccn([C@H](CO)c3ccc(Cl)c(F)c3)c(=O)c2)n1 [RG-7842] | 1.23e-05
CNS(=O)(=O)Nc1nccc(Cc2c(C)c3ccc(Oc4ncccn4)cc3oc2=O)c1F [RO-5126766] | 3.91e-08
COc1cc(F)c(F)c(Nc2ccc(I)cc2F)c1NS(=O)(=O)C1(C[C@H](O)CO)CC1 [Refametinib] | 2.73e-06
C=C(C)[C@]12C[C@@H](C)[C@@]34O[C@](Cc5ccccc5)(O[C@@H]1[C@@H]3C=C(COC(=O)Cc1ccc(O)c(OC)c1)C[C@]1(O)C(=O)C(C)=C[C@@H]41)O2 [Resiniferatoxin] | 5.11e-09
CN(C)CCNC(=O)c1cccc2cc3ccccc3nc12 [SN-22995] | > 1.99e-05
COc1ccc2nc(-c3cccc(F)c3)cc(O)c2c1OP(=O)(OCc1ccccc1)OCc1ccccc1 [TRX-818] | 1.01e-05
CC(=O)Nc1ccc(C(=O)Nc2ccccc2N)cc1 [Tacedinaline] | 1.31e-05
CC(C)c1ccc(CN2CCN(C(c3ccc(F)cc3)c3ccc(F)cc3)CC2)c(=O)c(NCCO)c1 [U 92032] | > 1.99e-05
CC(C)(CO)c1cc2cc(NC(=O)C3(c4ccc5c(c4)OC(F)(F)O5)CC3)c(F)cc2n1C[C@@H](O)CO [VX-661] | > 1.99e-05
CCN(CC)CCNc1ccc(CNC)c2sc3ccccc3c(=O)c12 [WIN 33156] | > 1.99e-05
CN(C)Cc1c(C(=O)NCCOc2ccc(C(=O)NO)cc2)oc2ccccc12 [abexinostat] | 2.2e-06
O=C(/C=C/c1cccc(S(=O)(=O)Nc2ccccc2)c1)NO [belinostat] | 6.7e-07
COc1cc2c(cc1O)C[C@H]1c3c(cc(O)c(OC)c3-2)CCN1C [boldine] | 1.33e-05
C[C@H](NC(=O)C(=O)Nc1ccccc1C(C)(C)C)C(=O)N[C@@H](CC(=O)O)C(=O)COc1c(F)c(F)cc(F)c1F [emricasan] | 8.71e-06
Nc1ccccc1NC(=O)c1ccc(CNC(=O)OCc2cccnc2)cc1 [entinostat] | 1.49e-07
CCCCc1nc2cc(/C=C/C(=O)NO)ccc2n1CCN(CC)CC [pracinostat] | 2.1e-07
O=C(CCCCCCC(=O)Nc1cccnc1)NO [pyroxamide] | > 1.99e-05
Cn1cc(CNCC2CCN(c3ncc(C(=O)NO)cn3)CC2)c2ccccc21 [quisinostat] | 9.07e-08
COc1cccc(-c2ccc(NC(=O)C3=C(C(=O)O)CCC3)c(F)c2)c1 [vidofludimus] | > 1.99e-05

same assay, conditions: concentration for half-maximal activity derived from the hill equation model; MEF2 luciferase reporter; read-out: qAC50

Compound | EC50 [M]
COc1ccc2[nH]cc(CCN(C(C)C)C(C)C)c2c1 [5-MeO-DIPT] | > 1.99e-05
CC1(C)C(=O)Nc2cc3[nH]c(-c4ccncc4)nc3cc21 [ADIBENDAN] | > 1.99e-05
COC(=O)C1=C(C)NC(C)=C(C(=O)OCC(C)=O)C1c1ccccc1[N+](=O)[O-] (stereo not drawn) [ARANIDIPINE] | 3.11e-06
Cc1nn(C)cc1CN1CCC(c2ccc(C(=O)Nc3ccccc3N)cc2)CC1 [AZD-9468] | > 1.99e-05
Clc1ccc2oc(C(c3ccccc3Cl)n3ccnc3)cc2c1 (stereo not drawn) [BECLICONAZOLE] | 5.1e-06
COC(=O)Nc1nc2cc(C3(O)c4ccccc4C(=O)N3c3cc(Cl)ccc3C)ccc2[nH]1 (stereo not drawn) [BMS-908662] | > 1.99e-05
CC(C)Nc1cc(-c2c[nH]c(C(=O)N[C@H](CO)c3cccc(Cl)c3)c2)c(Cl)cn1 [BVD-523] | 9.87e-07
CCCCCN=C(N)Nc1nc(-c2cnc(C)[nH]2)cs1 [CP 66948] | > 1.99e-05
CN(C)CCOc1ccc2[nH]c(C(=O)NCC#Cc3ccc(C(=O)NO)cc3)cc2c1 [CRA-026440] | 1.29e-05
CN1Cc2ccccc2[C@@H]2c3cccc4[nH]cc(c34)C[C@H]21 [CY-208-243] | 1.96e-05
COc1ccc2[nH]c(C(=O)c3ccccc3)cc2c1 [D-64131] | 3.74e-06
COC(=O)Nc1nc2cc(Sc3ccc(NC(=O)[C@H](C)N)cc3)ccc2[nH]1 [DENIBULIN] | 1.51e-06
CN(C)CCCn1c(=O)c2ccccc2c2ccccc21 [FANTRIDONE] | 5.38e-06
O=C(Nc1nc2cccc(-c3ccc(CN4CCS(=O)(=O)CC4)cc3)n2n1)C1CC1 [Filgotinib] | > 1.99e-05
CCN1CCC(Oc2c(C#N)ncc3[nH]c4ncccc4c23)CC1 [GDC-0425] | 1.26e-06
O=C(Cc1ccc(-c2ccc(N3CCOCC3)cc2)cn1)NCc1cccc(F)c1 [KX-02] | 5.8e-07
O=C(/C=C/c1ccc(CN(CCO)CCc2c[nH]c3ccccc23)cc1)NO [LAQ 824] | 5.3e-07
C[C@H](Nc1cc(-c2cnn(C)c2)cc(Nc2cnccn2)n1)c1ccc(F)cc1 [NS-018] | 1.12e-05

Compound | EC50 [M]
CCCCc1ccc2[nH]c(NC(=O)OC)nc2c1 [PARBENDAZOLE] | 1.75e-06
CCC(C)SSc1ncc[nH]1 (stereo not drawn) [PX-12] | 9.95e-07
CCOC(=O)/C(=C/c1ncc([N+](=O)[O-])n1C)C(C)=O [Propenidazole] | 3.11e-06
COc1ccc2c(c1)-c1nn(CCCN(C)C)c3ccc([N+](=O)[O-])c(c13)N2 [Pyrazoloacridine] | > 1.99e-05
CN(C)C(C(=O)Nc1ccc2c(=O)[nH]ccc2c1)c1ccsc1 (stereo not drawn) [Verosudil] | 7.54e-06
Cn1cnc2c(F)c(Nc3ccc(Br)cc3F)c(C(=O)NOCCO)cc21 [binimetinib] | > 1.99e-05
Cc1c(OCC(F)(F)F)ccnc1C[S@@+]([O-])c1nc2ccccc2[nH]1 [dexlansoprazole] | > 1.99e-05
CN(C)c1ccc2nc3ccc(N(C)C)cc3[s+]c2c1 [methylthioninium chloride] | 3.77e-06
CC(C)(C)c1[nH]cnc1/C=c1\[nH]c(=O)/c(=C/c2ccccc2)[nH]c1=O [plinabulin] | 2.67e-06
CN(C)Cc1ccc(S(=O)(=O)n2ccc(/C=C/C(=O)NO)c2)cc1 [resminostat] | 1.23e-06
O=C(CCCCCCNC(=O)c1cnc(N(c2ccccc2)c2ccccc2)nc1)NO [ricolinostat] | 2.79e-06
Acriflavine | 2.31e-06
CY-190602 | 2.41e-06
Chidamide | 3.67e-08
OXAMFLATIN | > 1.99e-05
XR 5944 | 4.52e-06
retapamulin | 1.96e-05

same assay, conditions: read-out: qAC50

Compound | EC50 [M]
CC[C@]1(O)C[C@@H]2CN(CCc3c([nH]c4ccccc34)[C@@](C(=O)OC)(c3cc4c(cc3OC)N(C)[C@H]3[C@@](O)(C(=O)OC)[C@H](OC(C)=O)[C@]5(CC)C=CCN6CC[C@]43[C@@H]65)C2)C1 [Vinblastine sulfate] | 6.73e-08

test system: not given; assay: not given; details: literature references given; cited from earlier work

Compound | PAMPA Pe (10^−6 cm s^−1)
Nc1c2ccccc2nc2ccccc12 [ACRISORCIN] | 6 10^−6 cm s^−1
CNS(=O)(=O)Nc1nccc(Cc2c(C)c3ccc(Oc4ncccn4)cc3oc2=O)c1F [RO-5126766] | 6 10^−6 cm s^−1
